Measurements: PMC4613240, “A Series of New Ligustrazine-Triterpenes Derivatives as Anti-Tumor Agents: Design, Synthesis, and Biological Evaluation” (International Journal of Molecular Sciences, 2015)

Tests used:
[1] = test system: HepG2 (human hepatocellular carcinoma); experiment: MTT cytotoxicity assay, HepG2; assay type: cell-based; settings: 72 h, maximal tested concentration 20.0 μM
Description: (§1) The cytotoxicity of ligustrazine-triterpenes derivatives was evaluated on five tumor cell lines (Bel-7402, HepG2, HT-29, Hela, and MCF-7) using the standard MTT assay. In the study, the antineoplastic drug cisplatin (DDP) was selected as the positive control. The MDCK cell line was used to test the toxicity of the ligustrazine-triterpenes derivatives and DDP.
(§2) The cell lines Bel-7402 (human hepatocellular carcinoma), HepG2 (human hepatocellular carcinoma), HT-29 (human colon carcinoma), Hela (human cervical cancer), MCF-7 (human breast cancer) were included in this study. All these cell lines were provided by the Chinese Academy of Medical Sciences & Peking Union Medical College. Cultures were maintained as monolayers in RPMI 1640 supplemented with 10% (v/v) heat inactivated fetal bovine serum and 1% (v/v) enicillin/streptomycin (Thermo Technologies, New York, NY, USA) at 37 °C in a humidified atmosphere with 5% CO2. The ligustrazine derivatives under study were dissolved in DMSO (Sigma, St. Louis, MO, USA) and added at required concentrations to the cell culture. Cells incubated without the preparations served as the control.
(§3) The cytotoxicity of the compounds was evaluated on five cancer cell lines (Bel-7402, HepG2, HT-29, Hela, MCF-7) by the standard MTT assay. In short, exponentially growing cells were seeded into 96-well plates at a density 10^4 cells/mL. The plates were incubated at 37 °C in a humidified 5% CO2 atmosphere. Cells were allowed to adhere to the surface for 24 h and then treated with serial dilutions of the compounds for 72 h. Later, aliquots of [3-(4,5-dimethylthiazol-2-yl)-2,5-diphenyltetrazolium bromide] (MTT) solution (20 μL, 5 mg/mL) were added to each well and the incubation was continued for an additional 4 h. Then the supernatant medium was thrown away. The dark blue formazan crystals formed within the healthy cells were solubilized with DMSO (150 μL) and the absorbance was measured in a plate reader (BIORAD 550 spectrophotometer, Bio-rad Life Science Development Ltd., Beijing, China) at 490 nm. Wells containing no drugs were used as control group. The IC50 values were defined as the concentration of compounds that produced a 50% reduction of surviving cells and calculated using Logit-method. Tumor cell growth inhibitory rate was calculated in the following Equation (1): % inhibition = (1 − Sample group OD/Control group OD) × 100% (1)

[2] = test system: MCF-7 (human breast cancer); experiment: MTT cytotoxicity assay, MCF-7; assay type: cell-based; settings: maximal tested concentration 20.0 μM
Description: as §1, §2, §3

[3] = test system: HT-29 (human colon carcinoma); experiment: MTT cytotoxicity assay, HT-29; assay type: cell-based; settings: maximal tested concentration 20.0 μM
Description: as §1, §2, §3

[4] = test system: Bel-7402 (human hepatocellular carcinoma); experiment: MTT cytotoxicity assay, Bel-7402; assay type: cell-based; settings: maximal tested concentration 20.0 μM
Description: as §1, §2, §3

[5] = test system: Hela (human cervical cancer); experiment: MTT cytotoxicity assay, Hela; assay type: cell-based; settings: 72 h, maximal tested concentration 20.0 μM
Description: as §1, §2, §3

[6] = test system: Madin-Darby canine kidney cell line (MDCK); experiment: MTT cytotoxicity (nephrotoxicity/selectivity) assay, MDCK; assay type: cell-based; settings: maximal tested concentration 20.0 μM, toxicity to MDCK kidney cells

Structure (SMILES)	IC50 ([1]; Homo sapiens, HepG2, 72 h)	IC50 ([2]; Homo sapiens, MCF7, 72 h)	IC50 ([3]; Homo sapiens, HT-29, 72 h)	IC50 ([4]; Homo sapiens, Bel-7402, 72 h)	IC50 ([5]; Homo sapiens, HeLa)	IC50 ([6]; Canis lupus familiaris)	melting point	IC50 [1]	IC50 ([2]; 72 h)	IC50 ([3]; 72 h)	IC50 ([4]; 72 h)	IC50 [6]	IC50 [5]
C=C(C)[C@@H]1CC[C@]2(C(=O)O)CC[C@]3(C)[C@H](CC[C@@H]4[C@@]5(C)CC[C@H](O)C(C)(C)[C@@H]5CC[C@]43C)[C@@H]12 [BA, betulinic acid, reference compound]	> 20 µM	> 20 µM	> 20 µM	> 20 µM	> 20 µM								
Cc1nc(C)c(COC(=O)[C@]23CCC(C)(C)CC2C2=CCC4[C@@]5(C)CC[C@H](O)C(C)(C)C5CC[C@@]4(C)[C@]2(C)CC3)nc1C (stereo partly drawn) [Compound 1a, 3β-Hydroxyolea-12-en-28-oic acid-3,5,6-trimethylpyrazin-2-methyl ester]	14.8 µM	15.2 µM	13.2 µM	10.2 µM	14.1 µM	> 20 µM							
Cc1nc(C)c(COC(=O)[C@]23CCC(C)(C)CC2C2=CCC4[C@@]5(C)CC[C@H](OC(=O)c6nc(C)c(C)nc6C)C(C)(C)C5CC[C@@]4(C)[C@]2(C)CC3)nc1C (stereo partly drawn) [Compound 1b, 3β-Hydroxyolea-(3,5,6-trimethylpyrazin-2-carbonyl)-12-en-28-oic acid-3,5,6-trimethylpyrazin-2-methyl ester]	12.1 µM	10.6 µM	> 20 µM	> 20 µM	> 20 µM	> 20 µM	193 to 193.7 °C						
Cc1nc(C)c(C(=O)OC2CCC3(C)C(CCC4(C)C3CC=C3C5CC(C)(C)CCC5(C(=O)OCc5ccccc5)CCC34C)C2(C)C)nc1C (stereo not drawn) [Compound 1c, 3β-Hydroxyolea-(3,5,6-trimethylpyrazin-2-carbonyl)-12-en-28-oic acid-benzyl ester]	> 20 µM	> 20 µM	> 20 µM	> 20 µM	> 20 µM		194.2 to 194.9 °C						
Cc1nc(C)c(C(=O)OC2CCC3(C)C(CCC4(C)C3CC=C3C5CC(C)(C)CCC5(C(=O)O)CCC34C)C2(C)C)nc1C (stereo not drawn) [Compound 1d, 3β-Hydroxyolea-(3,5,6-trimethylpyrazin-2-carbonyl)-12-en-28-oic acid]	7.94 µM	5.69 µM	8.43 µM	9.28 µM	4.37 µM	16.4 µM	289.7 to 290.5 °C						
Cc1nc(C)c(COC(=O)[C@]23CC[C@@H](C)[C@H](C)C2C2=CCC4[C@@]5(C)CC[C@H](O)C(C)(C)C5CC[C@@]4(C)[C@]2(C)CC3)nc1C (stereo partly drawn) [Compound 2a, 3β-Hydroxyurs-12-en-28-oic acid-3,5,6-trimethylpyrazin-2-methyl ester]	> 20 µM	> 20 µM	17.6 µM	8.01 µM	20 µM	> 20 µM	125.9 to 126.7 °C						
Cc1nc(C)c(COC(=O)[C@]23CC[C@@H](C)[C@H](C)C2C2=CCC4[C@@]5(C)CC[C@H](OC(=O)c6nc(C)c(C)nc6C)C(C)(C)C5CC[C@@]4(C)[C@]2(C)CC3)nc1C (stereo partly drawn) [Compound 2b, 3β-Hydroxyurs-(3,5,6-trimethylpyrazin-2-carbonyl)-12-en-28-oic acid-3,5,6-trimethylpyrazin-2-methyl ester]	> 20 µM	> 20 µM	> 20 µM	> 20 µM	> 20 µM		168.2 to 168.9 °C						
Cc1nc(C)c(C(=O)OC2CCC3(C)C(CCC4(C)C3CC=C3C5C(C)C(C)CCC5(C(=O)OCc5ccccc5)CCC34C)C2(C)C)nc1C (stereo not drawn) [Compound 2c, 3β-Hydroxyurs-(3,5,6-trimethylpyrazin-2-carbonyl)-12-en-28-oic acid-benzyl ester]	> 20 µM	> 20 µM	> 20 µM	> 20 µM	> 20 µM		218.5 to 219.3 °C						
Cc1nc(C)c(C(=O)OC2CCC3(C)C(CCC4(C)C3CC=C3C5C(C)C(C)CCC5(C(=O)O)CCC34C)C2(C)C)nc1C (stereo not drawn) [Compound 2d, 3β-Hydroxyurs-(3,5,6-trimethylpyrazin-2-carbonyl)-12-en-28-oic acid]	> 20 µM	9.49 µM	9.7 µM	10.1 µM	9.66 µM	> 20 µM	305.9 to 306.6 °C						
Cc1nc(C)c(COC(=O)[C@@]2(C)CC[C@]3(C)CC[C@]4(C)C(=CC(=O)C5[C@@]6(C)CC[C@H](O)C(C)(C)C6CC[C@]54C)C3C2)nc1C (some centres unmarked) [Compound 3a, 3-Hydroxy-11-oxoolean-12-en-30-oic acid-3,5,6-trimethylpyrazin-2-methyl ester]	> 20 µM	> 20 µM	19.9 µM	> 20 µM	11.2 µM	> 20 µM							
C=C(C)C1CCC2(C(=O)OCc3ccccc3)CCC3(C)C(CCC4C5(C)CCC(OC(=O)c6nc(C)c(C)nc6C)C(C)(C)C5CCC43C)C12 (stereo not drawn) [Compound 4c, 3β-Hydroxy-(3,5,6-trimethylpyrazin-2-carbonyl)-lup-20(29)-ene-28-oic acid-benzyl ester]	> 20 µM	> 20 µM	> 20 µM	> 20 µM	> 20 µM		162.1 to 162.8 °C						
N.N.[Cl][Pt][Cl] [DDP, cisplatin, reference compound]								4.57 µM	5.17 µM	5.28 µM	5.91 µM	14.6 µM	6.22 µM
CC1(C)[C@@H](O)CC[C@]2(C)[C@H]3C(=O)C=C4[C@@H]5C[C@@](C)(C(=O)O)CC[C@]5(C)CC[C@@]4(C)[C@]3(C)CC[C@@H]12 [GA, glycyrrhetic acid, reference compound]								> 20 µM	> 20 µM	> 20 µM	> 20 µM		> 20 µM
CC1(C)CC[C@]2(C(=O)O)CC[C@]3(C)C(=CC[C@@H]4[C@@]5(C)CC[C@H](O)C(C)(C)[C@@H]5CC[C@]43C)[C@@H]2C1 [OA, oleanolic acid, reference compound]	> 20 µM	> 20 µM	> 20 µM	> 20 µM	> 20 µM								
Cc1nc(C)c(C)nc1C [TMP, ligustrazine]	> 20 µM	> 20 µM	> 20 µM	> 20 µM	> 20 µM								
C[C@H]1[C@H](C)CC[C@]2(C(=O)O)CC[C@]3(C)C(=CC[C@@H]4[C@@]5(C)CC[C@H](O)C(C)(C)[C@@H]5CC[C@]43C)[C@H]12 [UA, ursolic acid, reference compound]	> 20 µM	> 20 µM	> 20 µM	> 20 µM	> 20 µM								
